Source: patent publication US6262084A, “Compounds that inhibit the binding of integrins to their receptors” (Texas Biotechnology Corporation, priority 1999, dated 2001)
pIC50: −log10 of the molar value.

Target: T1, α4β1 integrin (Homo sapiens, UniProt P05556+P13612)
T1 construct: Ramos cells fluorescently labeled with calcein; endogenous in cells; host or cells: Ramos cells
Assay: Inhibition of adhesion of calcein-labeled Ramos cells to CS1 (fibronectin) peptide-conjugated ovalbumin
Type: cell-based
Conditions: Table 1; for inhibition at 100 µM: Ramos, compound at a concentration of 100 μM, read-out: % A (percent inhibition of cell adhesion); for pIC50: dose required to give 50% inhibition, Ramos cell adhesion to CS1-ovalbumin, 30 minutes at 37° C
Experimental: The ability of compounds of the present invention to inhibit binding is described in detail hereinafter in the Examples by a procedure in which a 26-amino acid peptide containing the CS1 sequence of fibroncctin with an N-terminal Cys was coupled to maleimide activated ovalbumin. Ovalbumin and CS1 conjugated ovalbumin were coated onto 96-well polystyrene plates at 5 μg/ml in TBS (50 mM Tris, pH 7.5; 150 mM NaCl) at 4° C. for 16 hours. The plates were washed three times with TBS and blocked with TBS containing 3% BSA at room temperature for 4 hours. Blocked plates were washed three times in binding buffer (TBS; 1 mM MgCl2; 1 mM CaCl2; 1 mM MnCl2) prior to assay. Ramos cells fluorescently labeled with calcein AMC-3099 were resuspended in binding buffer (10^7 cells/ml) and diluted 1:2 with same buffer with or without compound. The cells were added immediately to the wells (2.5×10^5 cells/well) and incubated for 30 minutes at 37° C. Following three washes with binding buffer, adherent cells were lysed and quantitated using a fluorometer.
IC50 is defined as the dose required to give 50% inhibition. The lower the IC50 value and the greater the percentage of inhibition, the more efficient the compound is at prevention of cell adhesion. A stands for inhibition in Table 1, and the percent inhibition indicates the inhibition of cell adhesion when compound is included in the assay at a concentration of 100 μM.

T1 sequence (P13612 34-1032): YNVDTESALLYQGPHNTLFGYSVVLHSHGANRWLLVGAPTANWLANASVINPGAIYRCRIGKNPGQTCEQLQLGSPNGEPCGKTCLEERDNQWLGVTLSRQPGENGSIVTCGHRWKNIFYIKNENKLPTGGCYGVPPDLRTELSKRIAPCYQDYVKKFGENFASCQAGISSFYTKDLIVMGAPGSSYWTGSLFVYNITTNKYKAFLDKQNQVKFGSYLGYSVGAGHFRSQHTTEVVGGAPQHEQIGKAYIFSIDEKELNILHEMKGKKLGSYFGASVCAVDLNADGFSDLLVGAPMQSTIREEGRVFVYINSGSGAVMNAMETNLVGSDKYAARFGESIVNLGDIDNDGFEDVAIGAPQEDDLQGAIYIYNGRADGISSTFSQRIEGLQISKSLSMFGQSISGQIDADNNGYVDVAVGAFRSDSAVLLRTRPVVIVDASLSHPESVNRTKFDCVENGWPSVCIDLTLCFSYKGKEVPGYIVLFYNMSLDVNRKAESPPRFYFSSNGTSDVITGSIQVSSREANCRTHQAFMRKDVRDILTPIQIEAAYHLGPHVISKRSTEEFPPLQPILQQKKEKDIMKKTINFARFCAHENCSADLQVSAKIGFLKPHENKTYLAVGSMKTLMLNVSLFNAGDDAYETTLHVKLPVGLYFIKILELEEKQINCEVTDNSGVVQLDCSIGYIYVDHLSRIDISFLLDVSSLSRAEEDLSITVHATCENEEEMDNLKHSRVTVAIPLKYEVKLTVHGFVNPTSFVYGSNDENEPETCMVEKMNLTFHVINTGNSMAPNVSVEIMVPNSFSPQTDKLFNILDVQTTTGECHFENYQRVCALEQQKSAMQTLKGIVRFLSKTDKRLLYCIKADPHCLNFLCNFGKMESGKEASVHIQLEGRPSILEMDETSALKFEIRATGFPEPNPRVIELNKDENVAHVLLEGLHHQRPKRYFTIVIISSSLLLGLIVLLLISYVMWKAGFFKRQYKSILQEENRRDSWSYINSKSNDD
T1 sequence (P05556 21-798): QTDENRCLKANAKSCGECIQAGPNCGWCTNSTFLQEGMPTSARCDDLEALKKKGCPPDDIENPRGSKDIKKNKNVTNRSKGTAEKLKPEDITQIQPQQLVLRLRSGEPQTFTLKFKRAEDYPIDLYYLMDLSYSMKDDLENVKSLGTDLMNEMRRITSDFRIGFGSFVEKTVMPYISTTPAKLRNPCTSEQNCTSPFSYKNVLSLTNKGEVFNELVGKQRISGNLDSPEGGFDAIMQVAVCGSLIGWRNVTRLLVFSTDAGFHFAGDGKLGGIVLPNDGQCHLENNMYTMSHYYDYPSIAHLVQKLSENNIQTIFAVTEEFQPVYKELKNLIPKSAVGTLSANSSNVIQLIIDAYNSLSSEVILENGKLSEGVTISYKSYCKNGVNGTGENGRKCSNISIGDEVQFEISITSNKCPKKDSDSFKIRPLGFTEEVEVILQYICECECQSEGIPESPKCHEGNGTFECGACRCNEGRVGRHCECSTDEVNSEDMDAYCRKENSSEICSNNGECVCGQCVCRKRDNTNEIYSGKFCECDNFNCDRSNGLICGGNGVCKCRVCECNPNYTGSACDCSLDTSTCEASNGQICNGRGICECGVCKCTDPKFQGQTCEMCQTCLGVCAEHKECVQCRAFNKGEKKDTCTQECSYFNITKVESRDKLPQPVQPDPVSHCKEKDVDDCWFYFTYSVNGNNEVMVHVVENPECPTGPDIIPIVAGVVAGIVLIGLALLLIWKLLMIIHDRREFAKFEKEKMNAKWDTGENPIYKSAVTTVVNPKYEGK

| inhibition at 100 µM | pIC50 | SMILES |
| --- | --- | --- |
| 100% | 5.22 | CCCCC(CSc1ccccc1)OC(=O)N[C@@H](CC(=O)O)c1ccc2c(c1)OCO2 (stereo partly drawn) [(3S)-3-(1,3-benzodioxol-5-yl)-3-{[({1-[(phenylsulfanyl)methyl]pentyl}oxy)carbonyl]amino}propanoic acid] |
| 99% | 5.82 | O=C(O)C[C@H](NC(=O)NC(CSc1ccccc1)CSc1ccccc1)c1ccc2c(c1)OCO2 [(3S)-3-(1,3-benzodioxol-5-yl)-3-{[({2-(phenylsulfanyl)-1-[(phenylsulfanyl)methyl]ethyl}amino)carbonyl]amino}propanoic acid] |
| 100% | 6.40 | CCCC[C@@H](CSc1ccccc1)NC(=O)N[C@@H](CC(=O)O)c1ccc2c(c1)OCO2 [(3S)-3-(1,3-benzodioxol-5-yl)-3-{[({(1S)-1-[(phenylsulfanyl)methyl]pentyl}amino)carbonyl]amino}propanoic acid] |
| 100% | 7.70 | O=C(O)C[C@H](NC(=O)N[C@@H](CSCc1ccccc1)CSc1ccccc1)c1ccc2c(c1)OCO2 [(3S)-3-(1,3-benzodioxol-5-yl)-3-{[({(1S)-2-(benzylsulfanyl)-1-[(phenylsulfanyl)methyl]ethyl}amino)carbonyl]amino}propanoic acid] |
| 100% | 7.30 | CCSC[C@@H](CSc1ccccc1)NC(=O)N[C@@H](CC(=O)O)c1ccc2c(c1)OCO2 [(3S)-3-(1,3-benzodioxol-5-yl)-3-{[({(1S)-2-(ethylsulfanyl)-1-[(phenylsulfanyl)methyl]ethyl}amino)carbonyl]amino}propanoic acid] |
| 100% | 6.00 | CCSC[C@@H](CSc1ccccc1)OC(=O)N[C@@H](CC(=O)O)c1ccc2c(c1)OCO2 [(3S)-3-(1,3-benzodioxol-5-yl)-3-{[({(1S)-2-(ethylthio)-1-[(phenylthio)methyl]ethyl}oxy)carbonyl]amino}propanoic acid] |
| 100% | 7.00 | CSC[C@@H](CSc1ccccc1)NC(=O)N[C@@H](CC(=O)O)c1ccc2c(c1)OCO2 [(3S)-3-(1,3-benzodioxol-5-yl)-3-{[({(1S)-2-(methylsulfanyl)-1-[(phenylsulfanyl)methyl]ethyl}amino)carbonyl]amino}propanoic acid] |
| 98% | 5.30 | CCCCCCCCSC[C@@H](CSc1ccccc1)NC(=O)N[C@@H](CC(=O)O)c1ccc2c(c1)OCO2 [(3S)-3-(1,3-benzodioxol-5-yl)-3-{[({(1S)-2-(octylsulfanyl)-1-[(phenylsulfanyl)methyl]ethyl}amino)carbonyl]amino}propanoic acid] |
| 100% | 6.30 | CCCSC[C@@H](CSc1ccccc1)NC(=O)N[C@@H](CC(=O)O)c1ccc2c(c1)OCO2 [(3S)-3-(1,3-benzodioxol-5-yl)-3-{[({(1S)-2-(phenylsulfanyl)-1-[(propylsulfanyl)methyl]ethyl}amino)carbonyl]amino}propanoic acid] |
| 100% | 5.70 | O=C(O)C[C@H](NC(=O)N[C@@H](CSCCCc1ccccc1)CSc1ccccc1)c1ccc2c(c1)OCO2 [(3S)-3-(1,3-benzodioxol-5-yl)-3-{[({(1S)-2-[(3-phenylpropyl)sulfanyl]-1-[(phenylsulfanyl)methyl]ethyl}amino)carbonyl]amino}propanoic acid] |
| 100% | 5.70 | O=C(O)CSC[C@@H](CSc1ccccc1)NC(=O)N[C@@H](CC(=O)O)c1ccc2c(c1)OCO2 [(3S)-3-(1,3-benzodioxol-5-yl)-3-{[({(1S)-2-[(carboxymethyl)sulfanyl]-1-[(phenylsulfanyl)methyl]ethyl}amino)carbonyl]amino}propanoic acid] |

Second part, the molecule before the results:

| SMILES | inhibition at 100 µM | pIC50 |
| --- | --- | --- |
| CSCC[C@@H](CSc1ccc(NS(=O)(=O)c2ccc(C)cc2)cc1)NC(=O)N[C@@H](CC(=O)O)c1ccc2c(c1)OCO2 [(3S)-3-(1,3-benzodioxol-5-yl)-3-[({[(1S)-1-{[(4-{[(4-methylphenyl)sulfonyl]amino}phenyl)sulfanyl]methyl}-3-(methylsulfanyl)propyl]amino}carbonyl)amino]propanoic acid] | 100% | 6.40 |
| CSCC[C@@H](COc1ccccc1)NC(=O)N[C@@H](CC(=O)O)c1ccc2c(c1)OCO2 [(3S)-3-(1,3-benzodioxol-5-yl)-3-[({[(1S)-3-(methylsulfanyl)-1-(phenoxymethyl)propyl]amino}carbonyl)amino]propanoic acid] | 100% | 4.70 |
| CSCC[C@@H](CSc1ccccc1)N(C)C(=O)N[C@@H](CC(=O)O)c1ccc2c(c1)OCO2 [(3S)-3-(1,3-benzodioxol-5-yl)-3-{[(methyl{(1S)-3-(methylsulfanyl)-1-[(phenylsulfanyl)methyl]propyl}amino)carbonyl]amino}propanoic acid] | 78% | 4.46 |
| O=C(O)C[C@H](NC(=O)N[C@H](COCc1ccccc1)CSCc1ccccc1)c1ccc2c(c1)OCO2 [(3S)-3-(1,3-benzodioxol-5-yl)-3-{[({(1R)-2-(benzyloxy)-1-[(benzylthio)methyl]ethyl}amino)carbonyl]amino}propanoic acid] | 100% | 6.00 |
| O=C(O)C[C@H](NC(=O)O[C@H](COCc1ccccc1)CSCc1ccccc1)c1ccc2c(c1)OCO2 [(3S)-3-(1,3-benzodioxol-5-yl)-3-{[({(1R)-2-(benzyloxy)-1-[(benzylthio)methyl]ethyl}oxy)carbonyl]amino}propanoic acid] | 100% | 5.00 |
| CCSC[C@@H](COCc1ccccc1)OC(=O)N[C@@H](CC(=O)O)c1ccc2c(c1)OCO2 [(3S)-3-(1,3-benzodioxol-5-yl)-3-{[({(1R)-2-(benzyloxy)-1-[(ethylthio)methyl]ethyl}oxy)carbonyl]amino}propanoic acid] | 100% | 4.92 |
| CCCC[C@@H](CSc1ccc(NC(=O)Nc2ccccc2C)cc1)OC(=O)N[C@@H](CC(=O)O)c1ccc2c(c1)OCO2 [(3S)-3-(1,3-benzodioxol-5-yl)-3-{[({(1S)-1-[({4-[(2-toluidinocarbonyl)amino]phenyl}thio)methyl]pentyl}oxy)carbonyl]amino}propanoic acid] | 100% | 6.52 |
| O=C(O)C[C@H](NC(=O)N[C@@H](COCc1ccccc1)CSc1ccccc1)c1ccc2c(c1)OCO2 [(3S)-3-(1,3-benzodioxol-5-yl)-3-{[({(1S)-2-(benzyloxy)-1-[(phenylthio)methyl]ethyl}amino)carbonyl]amino}propanoic acid] | 100% | 6.52 |
| O=C(O)C[C@H](NC(=O)O[C@@H](CSCc1ccccc1)CSc1ccccc1)c1ccc2c(c1)OCO2 [(3S)-3-(1,3-benzodioxol-5-yl)-3-{[({(1S)-2-(benzylthio)-1-[(phenylthio)methyl]ethyl}oxy)carbonyl]amino}propanoic acid] | 100% | 5.52 |
| O=C(O)C[C@H](NC(=O)O[C@@H](COCCc1ccccc1)CSc1ccccc1)c1ccc2c(c1)OCO2 [(3S)-3-(1,3-benzodioxol-5-yl)-3-{[({(1S)-2-(phenethyloxy)-1-[(phenylthio)methyl]ethyl}oxy)carbonyl]amino}propanoic acid] | 100% | 5.40 |
